Biological target: T1, human mGlu7 (Homo sapiens, UniProt Q14831)
T1 construct: expressed in transfected cells
Assay: mGlu7 assay on HEK-expressing human mGlu7: fluorescent cell-based Ca2+ mobilization (FLIPR384), inhibition of EC80 L-AP4 response
Settings: HEK-293 cells expressing hmGlu7, EC80 L-AP4 stimulation; mean of at least three independent experiments in duplicate; read-out: Ca^2+ Flux (mean IC50)
Excerpt: mGlu7 Assay on HEK-Expressing Human mGlu7
The cDNA encoding the human metabotropic glutamate 7 receptor (hmGlu7), (accession number NM_181874.2, NCBI Nucleotide database browser), was subcloned into an expression vector containing also the hygromycin resistance gene. In parallel, the cDNA encoding a G protein allowing redirection of the activation signal to intracellular calcium flux was subcloned into a different expression vector containing also the Puromycin resistance gene. Transfection of both these vectors into HEK293 cells with PolyFect reagent (Qiagen) according to supplier's protocol, and hygromycin and puromycin treatment allowed selection of antibiotic resistant cells which had integrated stably one or more copies of the plasmids. Positive cellular clones expressing hmGlu7 were identified in a functional assay measuring changes in calcium fluxes in response to glutamate and L-AP4 or known mGlu7 orthosteric antagonists.
HEK-293 cells expressing hmGlu7 were maintained in media containing DMEM, Fetal Bovine Serum (10%), Glutamax™ (2 mM), penicillin (100 units/mL), streptomycin (100 μg/mL), geneticin (100 μg/mL) and hygromycin-B (40 μg/mL) and puromycin (1 μg/mL) at 37° C. with 5% CO2 in a humidified atmosphere.
Fluorescent Cell Based- Ca^+ Mobilization Assay Human mGlu7 HEK-293 cells were plated out 24 hours prior to a fluorescent cell-based calcium mobilization assay using FLIPR^384 assay (Molecular Device, Sunnyvale, CA, USA) in black-walled, clear-bottomed, poly-L-ornithine-coated 384-well plates at a density of 25,000 cells/well in a glutamine/glutamate free DMEM medium containing fetal bovine serum (10%), penicillin (100 units/mL), streptomycin (100 μg/mL) and doxycyline (1 μg/ml) at 37° C. with 5% CO2 in a humidified atmosphere.
On the day of the assay, the medium was aspirated and the cells were loaded with a 3 μM solution of Fluo4-AM (LuBioScience, Lucerne, Switzerland) in 0.03% pluronic acid. After 1 hour at 37° C./5% CO2, the non incorporated dye was removed by washing cell plate with the assay buffer. All assays were performed in a pH 7.4 buffered-solution containing 20 mM HEPES, 143 mM NaCl, 6 mM KCl, 1 mM MgSO4, 1 mM CaCl2, 0.125 mM sulfinpyrazone and 0.1% glucose.
After 10 s of basal fluorescence recording, various concentrations of the compounds of the invention were added to the cells. Changes in fluorescence levels were first monitored for 180 s in order to detect any agonist activity of the compounds. Then the cells were stimulated by an EC80 L-AP4 concentration for an additional 110 s in order to measure inhibiting activities of the compounds of the invention. EC80 L-AP4 concentration is the concentration giving 80% of the maximal glutamate response.
The concentration-response curves of L-AP4 or representative compounds of the present invention were generated using the Prism GraphPad software (Graph Pad Inc, San Diego, USA). The curves were fitted to a four-parameter logistic equation: […]
allowing determination of IC50 values.
The Table 3 below represents the mean IC50 obtained from at least three independent experiments of selected molecules performed in duplicate.

T1 sequence (Q14831 35-922 isoform Q14831-2 limits assumed): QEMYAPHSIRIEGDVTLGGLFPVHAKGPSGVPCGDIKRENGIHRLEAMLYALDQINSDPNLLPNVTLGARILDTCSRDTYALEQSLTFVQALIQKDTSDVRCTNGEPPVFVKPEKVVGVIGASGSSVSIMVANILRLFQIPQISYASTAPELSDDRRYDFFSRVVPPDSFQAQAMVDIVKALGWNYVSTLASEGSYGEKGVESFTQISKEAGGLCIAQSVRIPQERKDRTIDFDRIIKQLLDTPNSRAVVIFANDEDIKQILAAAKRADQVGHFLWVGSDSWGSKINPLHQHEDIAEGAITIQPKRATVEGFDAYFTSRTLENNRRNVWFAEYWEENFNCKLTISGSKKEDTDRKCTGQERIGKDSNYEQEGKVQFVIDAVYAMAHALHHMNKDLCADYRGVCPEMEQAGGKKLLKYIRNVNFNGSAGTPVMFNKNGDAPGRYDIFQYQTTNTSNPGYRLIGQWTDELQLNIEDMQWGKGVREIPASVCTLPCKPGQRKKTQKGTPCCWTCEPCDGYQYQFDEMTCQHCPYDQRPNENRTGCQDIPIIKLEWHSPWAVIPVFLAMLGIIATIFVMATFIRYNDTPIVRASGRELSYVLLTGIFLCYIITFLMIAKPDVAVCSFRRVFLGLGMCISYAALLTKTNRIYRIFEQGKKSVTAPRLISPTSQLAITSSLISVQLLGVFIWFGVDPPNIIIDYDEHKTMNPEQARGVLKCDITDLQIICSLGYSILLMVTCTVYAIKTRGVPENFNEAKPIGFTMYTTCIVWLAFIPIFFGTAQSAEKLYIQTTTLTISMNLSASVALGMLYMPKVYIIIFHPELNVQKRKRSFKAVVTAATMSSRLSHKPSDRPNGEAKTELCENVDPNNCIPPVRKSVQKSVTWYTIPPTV

| Structure (SMILES) | IC50 |
| --- | --- |
| O=c1c2ccc(-c3cccc(C4CC4)c3)cc2cnn1-c1ccccn1 [1-22, 6-(3-Cyclopropylphenyl)-2-(pyridin-2-yl)phthalazin-1(2H)-one] | 100 to 1000 nM |
| Cc1ccc(-c2ccc3c(=O)n(-c4ccncc4)ncc3c2)c(C)c1 [1-18] | 100 to 1000 nM |
| O=c1c2ccc(-c3ccc(F)c(N4CCC4)c3)cc2cnn1-c1ccccn1 [1-51] | 1000 to 10000 nM |
| COc1cccc(-c2ccc3c(=O)n(-c4cccc(C)n4)ncc3c2)c1 [1-32] | 100 to 1000 nM |
| CCn1ncc2cc(-c3cccc(N(C)C)c3)ccc2c1=O [1-6] | 100 to 1000 nM |
| COc1cccc(-c2ccc3c(=O)n(-c4ncc(N5CCC(N(C)C)C5)cn4)ncc3c2)c1C (centres unmarked) [1-101] | 100 to 1000 nM |
| COc1cccc(-c2ccc3c(=O)n(-c4ncc(N5CCN(C)CC5)cn4)ncc3c2)c1C [1-63] | 100 to 1000 nM |
| COc1cccc(-c2ccc3c(=O)n(-c4ncccn4)ncc3c2)c1 [1-31] | 100 to 1000 nM |
| Cc1ccc(-c2ccc3c(=O)n(-c4ccccc4F)ncc3c2)c(C)c1 [1-4, 6-(2,4-Dimethylphenyl)-2-(2-fluorophenyl)phthalazin-1(2H)-one] | 100 to 1000 nM |
| COc1cccc(-c2ccc3c(=O)n(-c4cc(C)ccn4)ncc3c2)c1 [1-30] | 100 to 1000 nM |
| Cc1c(OC2CC2)cccc1-c1ccc2c(=O)n(-c3ncccn3)ncc2c1 [1-43] | 100 to 1000 nM |
| COc1cccc(-c2ccc3c(=O)n(-c4ccc(SC)cn4)ncc3c2)c1C [1-67] | 100 to 1000 nM |
| CCn1ncc2cc(-c3ccc(C)cc3C)ccc2c1=O [1-1, 6-(2,4-Dimethylphenyl)-2-ethylphthalazin-1(2H)-one] | 100 to 1000 nM |
| CC(=O)c1ccc(-n2ncc3cc(-c4ccc(C)cc4C)ccc3c2=O)cc1 [1-12] | 100 to 1000 nM |
| CC(F)(F)c1cccc(-c2ccc3c(=O)n(-c4ccccn4)ncc3c2)c1 [1-39] | 100 to 1000 nM |
| COc1ccccc1-n1ncc2cc(-c3cccc(N4CCC4)c3)ccc2c1=O [1-19] | 100 to 1000 nM |
| CCn1ncc2cc(-c3c(C)cc(C)cc3C)ccc2c1=O [1-2] | 100 to 1000 nM |

Now from value to compound:

| IC50 | Structure (SMILES) |
| --- | --- |
| < 100 nM | CCn1ncc2cc(-c3cccc(N4CCC4)c3)ccc2c1=O [1-11, 6-(3-(Azetidin-1-yl)phenyl)-2-ethylphthalazin-1(2H)-one] |
| < 100 nM | COCC(C)(C)Nc1cnc(-n2ncc3cc(-c4cccc(OC)c4C)ccc3c2=O)nc1 [1-109] |
| < 100 nM | Cc1c(-c2ccc3c(=O)n(-c4ccccn4)ncc3c2)cccc1N1CCC1 [1-77] |
| < 100 nM | COc1cccc(-c2ccc3c(=O)n(-c4ncc(NCC(C)(C)O)cn4)ncc3c2)c1C [1-88] |
| < 100 nM | CCOc1cnc(-n2ncc3cc(-c4cccc(OC)c4C)ccc3c2=O)nc1 [1-85] |
| < 100 nM | COc1cccc(-c2ccc3c(=O)n(-c4ncc(NC5CCCC(O)C5)cn4)ncc3c2)c1C (centres unmarked) [1-75] |
| < 100 nM | COc1cccc(-c2ccc3c(=O)n(-c4ncc(NC5CCC(O)CC5)cn4)ncc3c2)c1C (centres unmarked) [1-74] |
| < 100 nM | COc1cccc(-c2ccc3c(=O)n(-c4ncc(N5CCOCC5)cn4)ncc3c2)c1C [1-64] |
| < 100 nM | Cc1c(OC2CC2)cccc1-c1ccc2c(=O)n(-c3ccccn3)ncc2c1 [1-36] |
| < 100 nM | COc1cccc(-c2ccc3c(=O)n(-c4ncc(N5CCC(O)C5)cn4)ncc3c2)c1C (centres unmarked) [1-65] |
| < 100 nM | O=c1c2ccc(-c3cccc(N4CCC4)c3)cc2cnn1-c1ccccn1 [1-45] |
| < 100 nM | CN1CCc2c(-c3ccc4c(=O)n(-c5ccccn5)ncc4c3)cccc21 [1-37] |
| < 100 nM | O=c1c2ccc(-c3cccc(OC(F)F)c3)cc2cnn1-c1ccccn1 [1-38] |
| < 100 nM | CN1CCc2c(-c3ccc4c(=O)n(-c5ncccn5)ncc4c3)cccc21 [1-44] |
| < 100 nM | COCCNc1cnc(-n2ncc3cc(-c4cccc(OC)c4C)ccc3c2=O)nc1 [1-79] |
| < 100 nM | COc1cccc(-c2ccc3c(=O)n(-c4ccc(S(C)(=N)=O)cn4)ncc3c2)c1C (centres unmarked) [1-91] |
| < 100 nM | COc1cccc(-c2ccc3c(=O)n(-c4ncc(NC5CCC(O)C5)cn4)ncc3c2)c1C (centres unmarked) [1-87] |
| < 100 nM | COc1cccc(-c2ccc3c(=O)n(-c4ncc(C)cn4)ncc3c2)c1C [1-54] |
| < 100 nM | COc1cccc(-c2ccc3c(=O)n(-c4ncc(NC5CCN(C)C5)cn4)ncc3c2)c1C (centres unmarked) [1-107] |
| < 100 nM | COc1cccc(-c2ccc3c(=O)n(-c4ccc(C(=O)NCC(C)(C)O)cn4)ncc3c2)c1C [1-92] |

Tested on: not given
Assay: not given
Settings: not given

| melting point | Structure (SMILES) |
| --- | --- |
| 181 to 184 °C | O=c1c2ccc(-c3cccc(C4CC4)c3)cc2cnn1-c1ccccn1 [1-22, 6-(3-Cyclopropylphenyl)-2-(pyridin-2-yl)phthalazin-1(2H)-one] |

— patent US20240327375A1, “SUBSTITUTED HETEROBICYCLIC DERIVATIVES AS NEGATIVE ALLOSTERIC MODULATORS OF MGLU7 RECEPTOR” (priority 2021, published 2024)
